#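 48-hour exposure; five concentrations; linearly interpolated endpoints. The concentration for 50% growth inhibition is given as GI50.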 The source made the active and inactive calls. No stated cut-off is given here; in the data, active = GI50 up to about 1.1 µM and inactive = higher.
# Key:
# Test in all cases: NCI tumour cell line growth inhibition, 48 h
# CAKI-1 = system: CAKI-1
# HL-60 = system: HL-60
# SN12C = system: SN12C
# HT-29 = system: HT-29
# SF-268 = system: SF-268
# COLO 205 = system: COLO 205
# MOLT-4 = system: MOLT-4
# SK-MEL-2 = system: SK-MEL-2
# A498 = system: A498
# U-251 = system: U-251
# UACC-62 = system: UACC-62
# M14 = system: M14
# HCT-15 = system: HCT-15
# RXF 393 = system: RXF 393
# SK-MEL-5 = system: SK-MEL-5
# NCI-H522 = system: NCI-H522
SMILES,GI50 (CAKI-1),GI50 (HL-60),GI50 (SN12C),GI50 (HT-29),GI50 (SF-268),GI50 (COLO 205),GI50 (MOLT-4),GI50 (SK-MEL-2),GI50 (A498),GI50 (U-251),GI50 (UACC-62),GI50 (M14),GI50 (HCT-15) [µM],GI50 (RXF 393),GI50 (SK-MEL-5),GI50 (NCI-H522)
CCOC(=O)Nc1ccc(S(=O)(=O)I)cc1.CCOC(=O)Nc1ccc(S(=O)(=O)I)cc1.CN(C=O)C1=C(N(C)C=O)C(N(C)C=O)=C(N(C)C=O)C(=O)C1=O,> 100 µM (inactive),> 100 µM (inactive),> 100 µM (inactive),> 100 µM (inactive),> 100 µM (inactive),> 100 µM (inactive),> 100 µM (inactive),> 100 µM (inactive),> 100 µM (inactive),> 100 µM (inactive),> 100 µM (inactive),> 100 µM (inactive),> 100,,,
CC(=O)OC12CCCCC1C1(CCCC1)NC2=O (stereo unspecified),,> 100 µM (inactive),> 100 µM (inactive),> 100 µM (inactive),> 100 µM (inactive),,> 100 µM (inactive),,> 100 µM (inactive),> 100 µM (inactive),> 100 µM (inactive),> 100 µM (inactive),> 100,> 100 µM (inactive),,
COc1ccc(CC2NCCc3c2[nH]c2ccccc32)cc1 (stereo unspecified),,22.4 µM (inactive),40.9 µM (inactive),28.3 µM (inactive),79.6 µM (inactive),17.4 µM (inactive),31.9 µM (inactive),> 100 µM (inactive),> 100 µM (inactive),82 µM (inactive),> 100 µM (inactive),41.6 µM (inactive),52.4,,40.9 µM (inactive),
Cc1nc2ccccc2c(=O)n1/N=C(\N=N\c1cc(Cl)ccc1Cl)c1cccc(-c2ccco2)c1,> 100 µM (inactive),> 10 µM (inactive),88.3 µM (inactive),> 100 µM (inactive),92 µM (inactive),> 100 µM (inactive),35.3 µM (inactive),84.5 µM (inactive),> 100 µM (inactive),> 100 µM (inactive),48.1 µM (inactive),> 100 µM (inactive),74.6,67.8 µM (inactive),96.4 µM (inactive),
NS(=O)(=O)c1ccc(NC(=O)c2cccc3c(=O)c4ccccc4[nH]c23)cc1,> 100 µM (inactive),31.8 µM (inactive),94.4 µM (inactive),> 100 µM (inactive),30.6 µM (inactive),37.2 µM (inactive),18.2 µM (inactive),41 µM (inactive),51.3 µM (inactive),48.4 µM (inactive),41.8 µM (inactive),> 100 µM (inactive),> 100,,65.5 µM (inactive),3.8 µM (inactive)
CC(C)N(C(=O)C12C3C4C5C3C1(C(=O)O)C5C42)C(C)C (stereo unspecified),> 100 µM (inactive),> 100 µM (inactive),> 100 µM (inactive),> 100 µM (inactive),> 100 µM (inactive),> 100 µM (inactive),> 100 µM (inactive),> 100 µM (inactive),> 100 µM (inactive),> 100 µM (inactive),> 100 µM (inactive),> 100 µM (inactive),> 100,,> 100 µM (inactive),> 100 µM (inactive)
CC(C)[C@@H]1C=C(c2ccccc2)c2ccccc2C1C(C#N)(C#N)C(C)C (stereo partly specified),,31.7 µM (inactive),> 100 µM (inactive),68.7 µM (inactive),> 100 µM (inactive),> 100 µM (inactive),48.6 µM (inactive),> 100 µM (inactive),> 100 µM (inactive),> 100 µM (inactive),> 100 µM (inactive),> 100 µM (inactive),> 100,> 100 µM (inactive),39.7 µM (inactive),
CCc1c(OC(C)=O)c2c(NC3OC(COC(C)=O)C(OC(C)=O)C(OC(C)=O)C3OC(C)=O)nc(OC)nc2oc1=O (stereo unspecified),> 100 µM (inactive),> 100 µM (inactive),> 100 µM (inactive),> 100 µM (inactive),,> 100 µM (inactive),> 100 µM (inactive),> 100 µM (inactive),> 100 µM (inactive),> 100 µM (inactive),> 100 µM (inactive),> 100 µM (inactive),> 100,> 100 µM (inactive),> 100 µM (inactive),
CC1CCC2(OCCO2)[C@]2(C)CC(O)C(=O)C=C12 (stereo partly specified),,> 100 µM (inactive),> 100 µM (inactive),> 100 µM (inactive),> 100 µM (inactive),> 100 µM (inactive),> 100 µM (inactive),> 100 µM (inactive),,> 100 µM (inactive),,> 100 µM (inactive),> 100,> 100 µM (inactive),> 100 µM (inactive),> 100 µM (inactive)
C/C(CN1C(=O)c2ccccc2C1=O)=N\NS(=O)(=O)c1ccc(Cl)cc1,> 100 µM (inactive),> 100 µM (inactive),18.8 µM (inactive),> 100 µM (inactive),,> 100 µM (inactive),> 100 µM (inactive),> 100 µM (inactive),> 100 µM (inactive),> 100 µM (inactive),> 100 µM (inactive),> 100 µM (inactive),> 100,,> 100 µM (inactive),> 100 µM (inactive)
Cc1ccc(Nc2nc3c(s2)C(=O)c2ccccc2C3=O)cc1,1.63 µM (inactive),0.229 µM (active),1.92 µM (inactive),3.18 µM (inactive),1.9 µM (inactive),12.3 µM (inactive),1.04 µM (active),1.89 µM (inactive),16.4 µM (inactive),1.89 µM (inactive),1.87 µM (inactive),1.78 µM (inactive),1.94,,1.75 µM (inactive),1.8 µM (inactive)
O=C1[C@H]2ON(c3ccccc3)C(c3ccccc3)[C@H]2C(=O)N1c1ccc(Cc2ccc(N3C(=O)[C@@H]4ON(c5ccccc5)C(c5ccccc5)[C@@H]4C3=O)cc2)cc1 (stereo partly specified),> 100 µM (inactive),> 100 µM (inactive),> 100 µM (inactive),> 100 µM (inactive),> 100 µM (inactive),> 100 µM (inactive),> 100 µM (inactive),> 100 µM (inactive),> 100 µM (inactive),> 100 µM (inactive),> 100 µM (inactive),> 100 µM (inactive),> 100,88.1 µM (inactive),> 100 µM (inactive),
O=S(=O)(N/N=C/c1ccc(Cl)c(Cl)c1)c1ccccc1,33.2 µM (inactive),26.6 µM (inactive),37.7 µM (inactive),40.1 µM (inactive),31 µM (inactive),21.6 µM (inactive),28.1 µM (inactive),34.2 µM (inactive),26.1 µM (inactive),33.7 µM (inactive),46.2 µM (inactive),60.3 µM (inactive),36.1,18.5 µM (inactive),54 µM (inactive),
O=C(O/N=C1/CCCC/C1=C\c1ccccc1)c1ccc(Cl)cc1,84.5 µM (inactive),24.7 µM (inactive),> 100 µM (inactive),> 100 µM (inactive),> 100 µM (inactive),> 100 µM (inactive),,> 100 µM (inactive),,89.3 µM (inactive),> 100 µM (inactive),> 100 µM (inactive),> 100,> 100 µM (inactive),89.7 µM (inactive),23.3 µM (inactive)
